# Columns and labels:
# B. cereus ATCC 11778 = test: NCCLS broth microdilution MIC, B. cereus; format: cell-based, Bacillus cereus; conditions: organism A = B. cereus ATCC 11778
# Source text: (§1) Compounds according to this invention were screened for their in vitro activities against selected species of bacteria and fungi. […]
# C. albicans ATCC 38247 = test: Antifungal MIC, C. albicans; format: cell-based, Candida albicans; conditions: organism B = C. albicans ATCC 38247
# Source text: as §1
# E. faecalis ATCC 29212 = test: NCCLS broth microdilution MIC, E. faecalis; format: cell-based; conditions: organism C = E. faecalis ATCC 29212
# Source text: as §1
# S. aureus ATCC 13709 = test: NCCLS broth microdilution MIC, S. aureus (MSSA); format: cell-based, Staphylococcus aureus; conditions: organism E = S. aureus ATCC 13709 (MSSA)
# Source text: as §1
# S. aureus ATCC 27660 = test: NCCLS broth microdilution MIC, S. aureus (MRSA); format: cell-based, Staphylococcus aureus; conditions: organism F = S. aureus ATCC 27660 (MRSA)
# Source text: as §1
# S. pneumoniae ATCC 49619 = test: NCCLS broth microdilution MIC, S. pneumoniae ATCC 49619; format: cell-based, Streptococcus pneumoniae; conditions: organism H = S. pneumoniae ATCC 49619
# Source text: as §1
# S. pneumoniae ATCC 51422 = test: NCCLS broth microdilution MIC, S. pneumoniae (PRSP); format: cell-based, Streptococcus pneumoniae; conditions: organism I = S. pneumoniae ATCC 51422 (PRSP)
# Source text: as §1
# [1] = Staphylococcus aureus, read-out: Minimum Inhibitory Concentration (MIC)
Structure (SMILES),Minimum Inhibitory Concentration (MIC) (B. cereus ATCC 11778),Minimum Inhibitory Concentration (MIC) (C. albicans ATCC 38247),Minimum Inhibitory Concentration (MIC) (E. faecalis ATCC 29212),Minimum Inhibitory Concentration (MIC) (S. aureus ATCC 13709),Minimum Inhibitory Concentration (MIC) (S. aureus ATCC 27660),Minimum Inhibitory Concentration (MIC) (S. pneumoniae ATCC 49619),Minimum Inhibitory Concentration (MIC) (S. pneumoniae ATCC 51422),"MIC (B. cereus ATCC 11778; Bacillus cereus, ATCC11778, read-out: Minimum Inhibitory Concentration (MIC))","MIC (C. albicans ATCC 38247; Candida albicans, ATCC38247, read-out: Minimum Inhibitory Concentration (MIC))","MIC (E. faecalis ATCC 29212; Enterococcus faecalis, ATCC29212, read-out: Minimum Inhibitory Concentration (MIC))",MIC (S. aureus ATCC 13709; [1]),MIC (S. aureus ATCC 27660; [1]),"MIC (S. pneumoniae ATCC 49619; Streptococcus pneumoniae, ATCC49619, read-out: Minimum Inhibitory Concentration (MIC))"
CN(C)CCCNC(=O)c1cc(NC(=O)c2ccc(NC(=O)c3cc(NC(=O)c4cc5ccccc5cn4)cn3C)cc2)cn1C [Ic-15],>32 µg/mL,>32 µg/mL,>32 µg/mL,+++ (+++ = MIC ≦ 4),+++ (+++ = MIC ≦ 4),+++ (+++ = MIC ≦ 4),,,,,,,
Cc1cc(NC(=O)c2cc(NC(=O)c3cc(NC(=O)c4cc5ccccc5cn4)cn3C)cn2CCN2CCOCC2)sn1 [Ib-63],+++ (+++ = MIC ≦ 4),>32 µg/mL,+++ (+++ = MIC ≦ 4),+++ (+++ = MIC ≦ 4),+++ (+++ = MIC ≦ 4),+++ (+++ = MIC ≦ 4),,,,,,,
Cn1cc(NC(=O)c2ccc(NC(=O)c3cc(NC(=O)c4cc5ccccc5cn4)cn3C)cc2)cc1C(=O)NCCN1CCCC1 [Ic-10],+++ (+++ = MIC ≦ 4),>32 µg/mL,+++ (+++ = MIC ≦ 4),+++ (+++ = MIC ≦ 4),+++ (+++ = MIC ≦ 4),+++ (+++ = MIC ≦ 4),,,,,,,
CN(C)CCSCCn1cc(NC(=O)c2cc3ccccc3cn2)cc1C(=O)Nc1cc(C(=O)Nc2cc(C(=O)NCCN3CCOCC3)n(C)c2)n(C)c1 [Ib-79],+++ (+++ = MIC ≦ 4),>32 µg/mL,+++ (+++ = MIC ≦ 4),+++ (+++ = MIC ≦ 4),+++ (+++ = MIC ≦ 4),+++ (+++ = MIC ≦ 4),,,,,,,
CN(C)CCCn1cc(NC(=O)c2cc(NC(=O)c3cc4ccccc4cn3)c[nH]2)cc1C(=O)Nc1cc(C(=O)NCCN2CCOCC2)n(C)c1 [Ib-82],+++ (+++ = MIC ≦ 4),+ (+ = 12 ≦ MIC ≦ 32),+++ (+++ = MIC ≦ 4),+++ (+++ = MIC ≦ 4),+++ (+++ = MIC ≦ 4),+++ (+++ = MIC ≦ 4),,,,,,,
CCN(CC)CCNC(=O)c1cc(NC(=O)c2cc(NC(=O)c3cc(NC(=O)c4cc5ccccc5cn4)cn3C)cn2C)sn1 [Ib-53],+++ (+++ = MIC ≦ 4),>32 µg/mL,+++ (+++ = MIC ≦ 4),+++ (+++ = MIC ≦ 4),+++ (+++ = MIC ≦ 4),+++ (+++ = MIC ≦ 4),,,,,,,
C[C@@H]1CCC[C@H](C)N1CCNC(=O)c1cc(NC(=O)c2ccc(NC(=O)c3cc(NC(=O)c4cc5ccccc5cn4)cn3C)cc2)cn1C [Ic-6],+++ (+++ = MIC ≦ 4),>32 µg/mL,+++ (+++ = MIC ≦ 4),+++ (+++ = MIC ≦ 4),+++ (+++ = MIC ≦ 4),+++ (+++ = MIC ≦ 4),+++ (+++ = MIC ≦ 4),,,,,,
Cn1cc(NC(=O)c2ccc(NC(=O)c3cc(NC(=O)c4cc5ccccc5cn4)cn3C)cc2)cc1C(=O)NCCCN1CCOCC1 [Ic-11],>32 µg/mL,>32 µg/mL,+++ (+++ = MIC ≦ 4),+++ (+++ = MIC ≦ 4),+++ (+++ = MIC ≦ 4),+++ (+++ = MIC ≦ 4),,,,,,,
Cn1cc(NC(=O)c2cc(NC(=O)c3cc4ccccc4cn3)cn2CCCN2CCCC2)cc1C(=O)Nc1ccc2cnccc2c1 [Ib-91],+++ (+++ = MIC ≦ 4),>32 µg/mL,+++ (+++ = MIC ≦ 4),+++ (+++ = MIC ≦ 4),+++ (+++ = MIC ≦ 4),+++ (+++ = MIC ≦ 4),,,,,,,
Cn1cc(NC(=O)c2cc(NC(=O)c3cc(NC(=O)c4cc5ccccc5cn4)c[nH]3)cn2C)cc1C(=O)NCCc1ccncc1 [Ib-76],+++ (+++ = MIC ≦ 4),>32 µg/mL,+++ (+++ = MIC ≦ 4),+++ (+++ = MIC ≦ 4),+++ (+++ = MIC ≦ 4),+++ (+++ = MIC ≦ 4),,,,,,,
Cn1cc(NC(=O)c2cc(NC(=O)c3cc(NC(=O)c4cc5ccccc5cn4)cn3C)c[nH]2)cc1C(=O)NCCCNC1CCCCC1 [Ib-92],+++ (+++ = MIC ≦ 4),>32 µg/mL,+++ (+++ = MIC ≦ 4),+++ (+++ = MIC ≦ 4),+++ (+++ = MIC ≦ 4),+++ (+++ = MIC ≦ 4),,,,,,,
Cn1cc(NC(=O)c2cc3ccccc3cn2)cc1C(=O)Nc1cc(C(=O)Nc2ccc3sc(C(=O)NCCN4CCOCC4)cc3c2)n(C)c1 [Id-1],,,,,,,,< 4 µg/mL,> 32 µg/mL,< 4 µg/mL,< 4 µg/mL,< 4 µg/mL,< 4 µg/mL
Cn1cc(NC(=O)c2cc(NC(=O)c3cc(NC(=O)c4cc5ccccc5cn4)cn3C)cn2CCN2CCOCC2)cc1C(=O)NCCN1CCOCC1 [Ib-57],+++ (+++ = MIC ≦ 4),>32 µg/mL,+++ (+++ = MIC ≦ 4),+++ (+++ = MIC ≦ 4),+++ (+++ = MIC ≦ 4),+++ (+++ = MIC ≦ 4),,,,,,,
CN(C)CCSCCn1cc(NC(=O)c2cc3ccccc3cn2)cc1C(=O)Nc1cc(C(=O)Nc2ccc3cnccc3c2)n(C)c1 [Ib-73],+++ (+++ = MIC ≦ 4),+++ (+++ = MIC ≦ 4),+++ (+++ = MIC ≦ 4),+++ (+++ = MIC ≦ 4),+++ (+++ = MIC ≦ 4),+++ (+++ = MIC ≦ 4),,,,,,,
Cc1cc(NC(=O)c2cc(NC(=O)c3nc(NC(=O)c4cc5ccccc5cn4)cn3C)cn2CCN2CCOCC2)sn1 [Ib-77],+++ (+++ = MIC ≦ 4),>32 µg/mL,+++ (+++ = MIC ≦ 4),+++ (+++ = MIC ≦ 4),+++ (+++ = MIC ≦ 4),+++ (+++ = MIC ≦ 4),,,,,,,
